Values quoted from earlier work as cited in publication PMC11187563, “The importance of tyrosines in multimers of cyclic RGD nonapeptides: towards αvβ6-integrin targeted radiotherapeutics” (RSC Medicinal Chemistry, 2024).

System: αvβ6-integrin
Conditions: compared with its two siblings with one Phe replaced by a Tyr; cited from earlier work

## cyclo[FRGDLAFp(NMe)K]
  αvβ6-integrin affinity and subtype selectivity: slightly better αvβ6-integrin affinity and subtype selectivity
